Measured values as given in US9950062B2, “Compounds and compositions as TLR activity modulators” (priority 2009, dated 2018).

Key:
[1] = Binding to aluminum hydroxide adjuvant, HPLC of supernatant; type: physicochemical; details: 100 μg/dose, room temperature and 37° C., 1, 5 and 24 hours
Experimental: The binding of the compounds of Formula (I) provided herein to aluminum-containing adjuvants at pH 9 and pH 6.5 was evaluated using HPLC to monitor the presence of the compound of Formula (I) in the supernatant.
(§1) Compound 1 (0.5 mg/mL) was dissolved in 10 mM NaOH and added to aluminum hydroxide adjuvant (2 mg/mL) resulting in a 100 μg/dose formulation. The supernatant was evaluated with HPLC using a ballistic gradient (from 10% CH3CN-0.1% TFA to 100% CH3CN-0.1% TFA in 2.5 minutes) on a C18 ([…]×4.6 mm) ACE column at 45° C. To evaluate the effect of supernatant temperature and incubation time on binding, the supernatant was evaluated at a supernatant temperature of room temperature and at 37° C. after 1 hour, 5 hours and 24 hours. A control without aluminum hydroxide was also evaluated.
as §1, with “Compound 5 (1” for “Compound 1 (0.5”, “to aluminium” for “to aluminum”
as §1, with “to aluminium” for “to aluminum”, “formulation. The pH of the solution was adjusted to pH 6.5 using HCl.” for “formulation.”
as §1, with “Compound 5 (1” for “Compound 1 (0.5”, “mM histidine buffer (1 mg/mL)” for “mM NaOH”, “to aluminium” for “to aluminum”

[2] = Adsorption to and desorption from aluminum hydroxide, HPLC (compound-modified alum formulation); type: physicochemical; details: alum formulation as for compound 1
Experimental: SDS-PAGE was used to evaluate the effect of the binding of compound 1 to aluminum hydroxide adjuvant on the ability of MenB antigens to bind to aluminum hydroxide adjuvant. Compound 1 was dissolved in 10 mM NaOH at 0.5 mg/ml final concentration. Alum and Compound 1 were combined at 1:6 (Compound 1:Alum) weight ratio in the presence of 10 mM Histidine final concentration. The pH was adjusted to 9.2 and the mixture was gently agitated for 3 hours at room temperature, allowing the reaction to occur. The mixture was centrifuged at 5000×g for 10 minutes and the supernatant discarded. The pellet (i.e. the compound 1-modified Alum) was resuspended in the initial Alum buffer to obtain the starting alum concentration. The pH was adjusted to 6.5. The modified Alum was then used for the formulation with the MenB antigens.
The adsorption of compound 16 and compound 17 to aluminum hydroxide was also evaluated using the alum formulation described above for compound 1. […] In addition, SDS-PAGE analysis of antigen binding in the presence of compound 16 or compound 17 was carried out as described above.

[3] = Systemic serum exposure after intramuscular injection; type: in vivo; details: intramuscular injection 100 μg (4 mg/kg), Balb/C mice
Experimental: Systemic serum exposure of the compounds is followed for 24 hours.

[4] = Adsorption to aluminum hydroxide, LC-MS/MS of supernatant
Experimental: The resulting solution was diluted 10-fold with blank histidine buffer to a final compound concentration of 0.1 mg/mL. Diluted solutions were incubated at 37° C. for 5 hours. The samples were centrifuged at 14,000 rpm for 10 minutes to pellet the insoluble. The supernatant (along with an internal standard) was then evaluated by LC-MS/MS using a ballistic gradient (from 5% CH3CN-0.5% formic acid to 95% CH3CN-1.0% formic acid in 3.5 minutes) on a Waters Atlantis dC18 (50 mm×2.1 mm) column at room temperature against a calibration curve prepared at known compound concentrations ranging from 0.005 to 50 μM. The concentration in the supernatant was calculated as % unbound to alum compared to control; the % bound to alum was calculated as 100% minus % unbound.

[5] = Muscle levels 24 hours after intramuscular injection; details: 24 hours after intramuscular injection (100 μg) with protein antigens, Balb/C mice
[6] = test system: strain NZ98; experiment: Serum bactericidal antibody (SBA) assay after immunization with 5CVMB; type: in vivo, MenB; details: compound pre-adsorbed to aluminium hydroxide adjuvant (25 μg or 100 μg) vs adjuvant alone or compound alone
Experimental: The MenB antigens are tested for in vivo immunogenic potency using a serum bactericidal antibody (SBA) assay.

[7] = test system: CD4+ T-cells, CD19+ B-cells; experiment: Activation markers on T-cells and B-cells in spleen and draining lymph nodes; type: in vivo
[8] = test system: serum cytokines (IL-6, mKC, MCP-1); experiment: Serum cytokines 24 hours after immunization; type: in vivo
Experimental: Serum cytokines are measured 24 hours after immunization with compound 6, with or without aluminium hydroxide adjuvant, or with buffer alone. Levels of IL-6 and mKC are both about ˜4-fold higher after administration of compound 6 without adjuvant, and levels of MCP-1 are ˜20-fold higher (compared to vehicle alone). […] Similarly, adsorption to aluminium hydroxide adjuvant decreases both the proportion of CD4+ T-cells which are also CD69+ and the proportion of CD19+ B-cells which are also CD86+, and this effect is seen in both the spleen and in draining lymph nodes. For example, adsorption reduces the proportion of CD86+ B-cells from ˜75% to ˜15%.

[9] = Phosphate desorption and organic solvent extraction from aluminum hydroxide, HPLC; type: physicochemical
Experimental: An organic solvent extraction method was used to evaluate whether compound 1 was covalently bound to aluminum hydroxide. The formulation was prepared as follows: 2 mg/ml aluminum hydroxide, 100 μg/dose compound 1, 10 mM histidine buffer) and the pH was adjusted to 9. A control formulation without aluminum hydroxide was also prepared.
One ml of the formulation containing Alum was mixed with 1 ml of KH2PO4 1M pH 9 (0.5M final conc, pH 9) and was left in gentle agitation overnight at 37° C. to allow desorption of compound 1 (compound 5) from the aluminum hydroxide via ligand exchange with the phosphate anions. Organic extraction was then performed: 1 ml of each sample was mixed with 1 ml of n-butanol and vortexed. After the formation of 2 phases, the upper phase (butanol) was recovered, dried with N2 and resuspended in MeOH/10 mM NaOH. HPLC analysis was run both for the formulation supernatants and for the butanol extracted samples (C18 column; 0-100% B in 2 min; A=0.1% TFA in H2O; B=0.1% TFA in ACN). […]

[10] = Solubility; type: physicochemical
[11] = Confocal microscopy of aluminium hydroxide adjuvant mixed with compound; type: physicochemical; details: adjuvant 3 mg/ml, compound 0.25 mg/ml
From the text: Compound 1 is intrinsically fluorescent.

[12] = pH 9, 10 mM NaOH, aluminum hydroxide 2 mg/mL
[13] = adsorbed to aluminium hydroxide adjuvant
[14] = 10 mM histidine buffer pH 6.8, final compound concentration 0.1 mg/mL, 37° C. for 5 hours, 100% minus % unbound
[15] = with aluminium hydroxide adjuvant
[16] = without aluminium hydroxide adjuvant
[17] = in combination with aluminium hydroxide adjuvant

With Cc1ccc2c(c1)nc(N)c1ncc(CCc3ccc(OCCCC(F)(F)P(=O)(O)O)cc3C)cc12 [Compound 5, 4-(4-(2-(5-amino-8-methylbenzo[f][1,7]naphthyridin-2-yl)ethyl)-3-methylphenoxy)-1,1-difluorobutylphosphonic acid] the “presence of compound in supernatant when aluminum hydroxide included (HPLC)” value (“presence of compound in supernatant” below) ([1]; pH 6.7, 10 mM histidine buffer, aluminium hydroxide 2 mg/mL) was “not present in the supernatant” and the “presence of compound in supernatant” value [1, 12] was “not present in the supernatant”.
With Cc1cc(OCCCC(F)(F)P(=O)(O)O)ccc1CCc1cnc2c(N)nc3cc(CCC(=O)O)ccc3c2c1 [Compound 16, 3-(5-amino-2-(4-(4,4-difluoro-4-phosphonobutoxy)-2-methylphenethyl)benzo[f][1,7]naphthyridin-8-yl)propanoic acid] the “compound in supernatant after addition of aluminum hydroxide (HPLC)” value [2] was “no compound was observed in the supernatant”, the “serum concentration profile over 24 hours” value [3, 13] was “much flatter response which is sustained for a longer period” and the “serum concentration profile over 24 hours” value ([3]; unadsorbed (buffer alone)) was “high initial serum concentration which rapidly declines”. For the same compound, the “% bound to alum” value [4, 14] was 94.5%, the “muscle level of compound” value [5, 15] was “readily detected” and the “muscle level of compound” value [5, 16] was “undetectable”.
With Cc1ccc2c(c1)nc(N)c1ncc(CCc3ccc(OCCOCCOCCC(F)(F)P(=O)(O)O)cc3C)cc12 [Compound 6, 3-(2-(2-(4-(2-(5-amino-8-methylbenzo[f][1,7]naphthyridin-2-yl)ethyl)-3-methylphenoxy)ethoxy)ethoxy)-1,1-difluoropropylphosphonic acid] the “bactericidal (SBA) titer against strain NZ98” value [6] was “large increase in SBA titer”, the “% bound to alum” value [4, 14] was 98.2% and the “proportion of CD86+ B-cells” value [7, 13] was ~15%. The “effect of adsorption on proportion of CD4+ T-cells which are also CD69+” value ([7]; adsorbed vs unadsorbed, spleen and draining lymph nodes) was “decreases”, the “proportion of CD86+ B-cells” value ([7]; without adsorption to aluminium hydroxide adjuvant) was ~75% and the “muscle level of compound” value [5, 15] was “readily detected”. For the same compound, the “muscle level of compound” value [5, 16] was “undetectable”, the “serum IL-6 level compared to vehicle alone” value [8, 17] was < 2 fold and the “serum MCP-1 level compared to vehicle alone” value [8, 17] was < 2 fold. The “serum mKC level compared to vehicle alone” value [8, 17] was < 2 fold, the “serum IL-6 level compared to vehicle alone” value ([8]; without adjuvant) was ~4 fold and the “serum MCP-1 level compared to vehicle alone” value ([8]; without adjuvant) was ~20 fold. The “serum mKC level compared to vehicle alone” value ([8]; without adjuvant) was ~4 fold.
With Cc1cc(OCCOCCC(F)(F)P(=O)(O)O)ccc1CCc1cnc2c(N)nc3cc(CCC(=O)O)ccc3c2c1 [Compound 19, 3-(5-amino-2-(4-(2-(3,3-difluoro-3-phosphonopropoxy)ethoxy)-2-methylphenethyl)benzo[f][1,7]naphthyridin-8-yl)propanoic acid] the “% bound to alum” value ([4]; 5 h, 0.1 mg/mL, pH 6.8) was 96.0%.
For Cc1ccc2c(c1)nc(N)c1ncc(CCc3ccc(OCCCP(=O)(O)O)cc3C)cc12 [Compound 1, 3-(4-(2-(5-amino-8-methylbenzo[f][1,7]naphthyridin-2-yl)ethyl)-3-methylphenoxy)propylphosphonic acid], the “presence of compound in supernatant” value ([1]; pH 6.5 (adjusted with HCl), aluminium hydroxide 2 mg/mL) was “not present in the supernatant”, the “presence of compound in supernatant” value [1, 12] was “not present in the supernatant” and the “quantity of compound in supernatant of formulation treated with KH2PO4 (desorption by phosphate anions)” value ([9]; 0.5M KH2PO4 pH 9, overnight at 37° C.) was “Increased quantities”. For the same compound, the “Concentration” value ([9]; control/extract: n-butanol extract of control formulation without aluminum hydroxide) was 217 ± 1 µg/mL, the “Concentration” value ([9]; extaract: n-butanol extract of formulation with alum) was 27 ± 1 µg/mL and the “Concentration” value ([9]; phosphate supernatant: formulation with alum treated with 0.5M KH2PO4 pH 9 overnight at 37° C.) was 59 ± 1 µg/mL. For the same compound, the “Concentration” value ([9]; phosphate/extract: n-butanol extract of KH2PO4-treated formulation with alum) was 119 ± 1 µg/mL, the “Concentration” value ([9]; supernatant control: formulation without aluminum hydroxide) was 329 ± 1 µg/mL and the “Concentration” value ([9]; supernatant of formulation with 2 mg/ml aluminum hydroxide, 10 mM histidine buffer, pH 9) was 5 ± 1 µg/mL. The “solubility in histidine buffer” value [10] was “poorly soluble” and the “association with aluminium hydroxide adjuvant particles (confocal microscopy)” value [11] was “associates with particles of the insoluble metal salt”.
With Cc1cc(OCCOCCOCCC(F)(F)P(=O)(O)O)ccc1CCc1cnc2c(N)nc3cc(CCC(=O)O)ccc3c2c1 [Compound 17, 3-(5-amino-2-(4-(2-(2-(3,3-difluoro-3-phosphonopropoxy)ethoxy)ethoxy)-2-methylphenethyl)benzo[f][1,7]naphthyridin-8-yl)propanoic acid] the “compound in supernatant after addition of aluminum hydroxide (HPLC)” value [2] was “no compound was observed in the supernatant”, the “% bound to alum” value [4, 14] was 96.2% and the “muscle level of compound” value [5, 15] was “readily detected”. For the same compound, the “muscle level of compound” value [5, 16] was “undetectable”.
